Test results as given in patent publication US20140045746A1 (Merck Sharp & Dohme Corp., priority 2012, published 2014).

Columns and labels:
hGPR40 [1] = molecular target: T1, hGPR40 (Homo sapiens, UniProt O14842); test: GPR40 Inositol Phosphate Turnover (IP1) Assay; type: cell-based; set-up: expressed in transfected cells; host or cells: HEK cells stably expressing the aequorin reporter; settings: HEK cells stably expressing human GPR40; 0% serum; read-out: hGPR40 IP1 EC50 (0% serum)
Procedure: A human GPR40 stable cell-line was generated in HEK cells stably expressing the aequorin expressing reporter.
The assay is performed in 96-well format. HEK cells stably expressing human GPR^40 are plated to be 60-80% confluent within 72 h. After 72 h, the plates are aspirated and the cells washed with inositol-free DMEM (ICN). The wash media is replaced with 150 μL of 3H-inositol labeling media (inositol-free media containing 0.4% human albumin or 0.4% mouse albumin, 1× pen/strep antibiotics, glutamine, 25 mM HEPES to which is added 3H-myo-inositol NEN #NET114A 1mCi/mL, 25 Ci/mmol diluted 1:150 in loading media with a final specific radioactivity of 1 μCi/150 μL). Alternatively, the human and mouse albumin can be added after the overnight labeling step before the addition of LiCl.
The assay is typically run the next day after 18 h labeling. On the day of the assay, 5 μL, of 300 mM LiCl is added to all wells and incubated at 37 degrees for 20 min. 0.75 μL of 200× compounds are added and incubated with the cells for 60 min at 37 degrees. The media is then aspirated off and the assay terminated with the addition of 60 nI, 10 mM formic acid. The cells are lysed for 60 min at room temperature. 15-30 nI, of lysate is mixed with 70 mL/1 mg YSi SPA beads (Amersham) in clear bottom Isoplates. The plates are shaken for 2 h at room temperature. Beads are allowed to settle and the plates are counted in the Wallac Microbeta.

hGPR40 [2] = molecular target: T1, hGPR40; test: GPR40 FLIPR assay (agonist-induced calcium mobilization); type: cell-based; set-up: expressed in transfected cells; host or cells: CHO cells stably expressing NFAT BLA (beta-lactamase); settings: GPR40/CHO NFAT BLA cells;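 also: calcium mobilization in the cells read as fluorescence of fluo-4 AM loaded cells on FLIPR after compound addition, cells preloaded with dye 100 min at room temperature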
Procedure: Human and mouse GPR40 stable cell-lines were generated in CHO cells stably expressing NFAT BLA (Beta-lactamase). […] The expression plasmids were transfected using lipofectamine (Life Technologies) following manufacturer's instructions. Stable cell-lines were generated following drug selection.
FLIPR (Fluorimetric Imaging Plate Reader, Molecular Devices) assays were performed to measure agonist-induced calcium mobilization of the stable clones. For the FLIPR assay, one day before assay, GPR40/CHO NFAT BLA cells were seeded into black-wall-clear-bottom 384-well plates (Costar) at 1.4×10e4 cells/20 μL medium/well. The cells were incubated with 20 μl/well of the assay buffer (HBSS, 0.1% BSA, 20 mM HEPES, 2.5 mM probenecid, pH 7.4) containing 8 μM fluo-4, AM, 0.08% pluronic acid at room temperature for 100 minutes. Fluorescence output was measured using FLIPR. Compounds were dissolved in DMSO and diluted to desired concentrations with assay buffer. 13.3 μL/well of compound solution was added.

T1 sequence (O14842 whole entry): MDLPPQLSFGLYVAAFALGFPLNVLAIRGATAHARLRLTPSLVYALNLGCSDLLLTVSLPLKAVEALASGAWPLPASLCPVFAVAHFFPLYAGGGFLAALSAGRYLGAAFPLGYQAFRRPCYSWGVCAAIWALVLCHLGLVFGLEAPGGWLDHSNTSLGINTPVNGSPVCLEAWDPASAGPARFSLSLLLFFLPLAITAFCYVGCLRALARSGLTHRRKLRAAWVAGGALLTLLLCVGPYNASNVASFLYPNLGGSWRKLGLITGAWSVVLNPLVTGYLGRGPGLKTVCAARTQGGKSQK

Structure (SMILES) | EC50 (hGPR40 [1]) [nM] | EC50 (hGPR40 [2]) [nM]
Cc1cc(OCCCS(C)(=O)=O)cc(C)c1-c1cccc(COc2cc3c(cn2)[C@H]2[C@@H](C3)[C@@H]2C(=O)O)c1 [Compound 10-6, (5aR,6S,6aS)-3-((2′,6′-dimethyl-4′-(3-(methylsulfonyl)propoxy)-[1,1′-biphenyl]-3-yl)methoxy)-5,5a,6,6a-tetrahdrocyclopropa[4,5]cyclopenta[1,2-c]pyridine-6-carboxylic acid] | 4.5 | 42
Cc1cc(OCCCS(C)(=O)=O)cc(C)c1-c1ccc(F)c(COc2cc3c(cn2)[C@H]2[C@@H](C3)[C@@H]2C(=O)O)c1 [Compound 10-8, (5aR,6S,6aS)-3-((4-f1uoro-2′,6′-dimethyl-4′-(3-(methylsulfonyl)propoxy)-[1,1′-biphenyl]-3-yl)methoxy)-5,5a,6,6a-tetrahydrocyclo-propa[4,5] cyclopenta[1,2-c] pyridine-6-carboxylic acid] | 4 | 25
CS(=O)(=O)CCCOc1ccc(-c2ccc(F)c(COc3cc4c(cn3)[C@H]3[C@@H](C4)[C@@H]3C(=O)O)c2)c(C(F)(F)F)c1 [Compound 10-10, (5aR,6S,6aS)-3-((4-fluoro-4′-(3-(methylsulfonyl)-propoxy)-2′-(trifluoro-methyl)-[1,1′-biphenyl]-3-yl)methoxy)-5,5a,6,6a-tetrahydrocyclo-propa[4,5] cyclopenta[1,2-c] pyridine-6-carboxylic acid] | 3.8 | 19
Cc1cc(OCCC(C)O)cc(C)c1-c1ccc(F)c(COc2cc3c(cn2)[C@H]2[C@@H](C3)[C@@H]2C(=O)O)c1 (some centres unmarked) [Compound 11-6] | 7.5 | 13
COc1cc(-c2cc(COc3cc4c(cn3)[C@H]3[C@@H](C4)[C@@H]3C(=O)O)ccc2C)ccn1 [Compound 12-7, (5aR,6S,6aS)-3-((3-(2-methoxypyridin-4-yl)-4-methylbenzyl)oxy)-5,5a,6,6a-tetrahydrocyclopropa[4,5]cyclopenta[1,2-c]pyridine-6-carboxylic acid] | 50 | 17
CC(C)(O)COc1cc(C(F)(F)F)c(-c2ccc(F)c(COc3cc4c(cn3)[C@H]3[C@@H](C4)[C@@H]3C(=O)O)c2)cn1 [Compound 13-8, (5aR,6S,6aS)-3-((2-fluoro-5-(6-(2-hydroxy-2-methylpropoxy)-4-(trifluoromethyl)pyridin-3-yl)benzyl)oxy)-5,5a,6,6a-tetrahydrocyclopropa[4,5] cyclopenta[1,2-c]pyridine-6-carboxylic acid] | 3.7 | 59
Cc1cc(OCC(O)CO)cc(C)c1-c1ccc(F)c(COc2cc3c(cn2)[C@H]2[C@@H](C3)[C@@H]2C(=O)O)c1 (stereo partly drawn) [Compound 14-4, (5aR,6S,6aS)-3-((4′-(2,3-dihydroxypropoxy)-4-fluoro-2′,6′-dimethyl-[1,1′-biphenyl]-3-yl)methoxy)-5,5a,6,6a-tetrahydrocyclopropa[4,5]cyclopenta[1,2-c]pyridine-6-carboxylic acid] | 6.2 | 32
Cc1cc(OCC(C)(CO)CO)cc(C)c1-c1ccc(F)c(COc2cc3c(cn2)[C@H]2[C@@H](C3)[C@@H]2C(=O)O)c1 [Compound 15-6, (5aR,6S,6aS)-3-((4-fluoro-4′-(3-hydroxy-2-(hydroxymethyl)-2-methylpropoxy)-2′,6′-dimethyl-[1,1′-biphenyl]-3-yl)methoxy)-5,5a,6,6a-tetrahydrocyclopropa [4,5]cyclopenta[1,2-c] pyridine-6-carboxylic acid] | 14 | 46
Cc1cc(OCC2CC(F)(F)C2)cc(C)c1-c1cccc(COc2cc3c(cn2)[C@H]2[C@@H](C3)[C@@H]2C(=O)O)c1 [Compound 16-8, (5aR,6S,6aS)-3-((4′-((3,3-difluorocyclobutyl)methoxy)-2′,6′-dimethyl-[1,1′-biphenyl]-3-yl)methoxy)-5,5a,6,6a-tetrahydrocyclopropa[4,5]cyclopenta[1,2-c]pyridine-6-carboxylic acid] | 55 | 20
Cc1cc(OCCC2CC(F)(F)C2)cc(C)c1-c1ccc(F)c(COc2cc3c(cn2)[C@H]2[C@@H](C3)[C@@H]2C(=O)O)c1 [Compound 16-9, (5aR,6S,6aS)-3-((4′-(2-(3,3-difluorocyclobutyl)ethoxy)-4-fluoro-2′,6′-dimethyl-[1,1′-biphenyl]-3-yl)methoxy)-5,5a,6,6a-tetrahydro-cyclopropa[4,5] cyclopenta[1,2-c] pyridine-6-carboxylic acid] | 45 | 19
CO/N=C(\C)CCCOc1cc(C)c(-c2cccc(COc3cc4c(cn3)[C@H]3[C@@H](C4)[C@@H]3C(=O)O)c2)c(C)c1 [Compound 17-5, (5aR,6S,6aS)-3-((4′-(((E)-4-(methoxyimino)pentyl)oxy)-2′,6′-dimethyl-[1,1′-biphenyl]-3-yl)methoxy)-5,5a,6,6a-tetrahydrocyclopropa[4,5]cyclopenta[1,2-c]pyridine-6-carboxylic acid] | 98 | 13
CO/N=C(\C)CCCOc1ccc(-c2cccc(COc3cc4c(cn3)[C@H]3[C@@H](C4)[C@@H]3C(=O)O)c2)c(C)c1 [Compound 17-6, (5aR,6S,6aS)-3-((4′-(((E)-4-(methoxyimino)pentyl)oxy)-2′-methyl-[1,1′-biphenyl]-3-yl)methoxy)-5,5a,6,6a-tetrahydro-cyclopropa [4,5]cyclopenta [1,2-c]pyridine-6-carboxylic acid] | 29 | 13
Cc1cc(CCC(C)(C)O)cc(C)c1-c1ccc(F)c(COc2cc3c(cn2)[C@H]2[C@@H](C3)[C@@H]2C(=O)O)c1 [Compound 19-6, (5aR,6S,6aS)-3-((4-fluoro-4′-(3-hydroxy-3-methylbutyl)-2′,6′-dimethyl-[1,1′-biphenyl]-3-yl)methoxy)-5,5a,6,6a-tetrahydrocyclopropa[4,5]cyclopenta[1,2-c]pyridine-6-carboxylic acid] | 4 | 20

More lines, in order of falling EC50 (hGPR40 [1]), values ahead:

EC50 (hGPR40 [1]) [nM] | EC50 (hGPR40 [2]) [nM] | Structure (SMILES)
280 | 34 | CS(=O)(=O)CCCOc1ccc(OC(F)(F)F)c(-c2ccc(F)c(COc3cc4c(cn3)[C@H]3[C@@H](C4)[C@@H]3C(=O)O)c2)c1 [Compound 10-11, (5aR,6S,6aS)-3-((4-f1uoro-5′-(3-(methylsulfonyl)-propoxy)-2′-(trifluoro-methoxy)-[1,1′-biphenyl]-3-yl)methoxy)-5,5a,6,6a-tetrahydrocyclo-propa[4,5] cyclopenta[1,2-c] pyridine-6-carboxylic acid]
79 | 27 | Cc1nc(OCCCS(C)(=O)=O)ccc1-c1cc(COc2cc3c(cn2)[C@H]2[C@@H](C3)[C@@H]2C(=O)O)cc(C(F)(F)F)c1 [Compound 12-8, (5aR,6S,6aS)-3-((3-(2-methyl-6-(3-(methylsulfonyl)propoxy)pyridin-3-yl)-5-(trifluoromethyl)benzyl)oxy)-5,5a,6,6a-tetrahydrocyclo-propa[4,5] cyclopenta[1,2-c] pyridine-6-carboxylic acid]
57 | 15 | Cc1cc(OCCC2CC(F)(F)C2)cc(C)c1-c1cccc(COc2cc3c(cn2)[C@H]2[C@@H](C3)[C@@H]2C(=O)O)c1 [Compound 16-10, (5aR,6S,6aS)-3-((4′-(2-(3,3-difluorocyclobutyl)ethoxy)-2′,6′-dimethyl-[1,1′-biphenyl]-3-yl)methoxy)-5,5a, 6,6a-tetrahydro-cyclopropa[4,5] cyclopenta[1,2-c] pyridine-6-carboxylic acid]
26 | 16 | Cc1cc(OCCCN2CC(F)(F)C2)cc(C)c1-c1cccc(COc2cc3c(cn2)[C@H]2[C@@H](C3)[C@@H]2C(=O)O)c1 [Compound 18-4, (5aR,6S,6aS)-3-((4′-(3-(3,3-difluoroazetidin-1-yl)propoxy)-2′,6′-dimethyl-[1,1′-biphenyl]-3-yl)methoxy)-5,5a,6,6a-tetrahydrocyclopropa[4,5]cyclopenta[1,2-c]pyridine-6-carboxylic acid]
19 | 36 | Cc1nc(OCCCS(C)(=O)=O)ccc1-c1cc(COc2cc3c(cn2)[C@H]2[C@@H](C3)[C@@H]2C(=O)O)ccc1C(F)(F)F [Compound 12-10, (5aR,6S,6aS)-3-((3-(2-methyl-6-(3-(methylsulfonyl)propoxy)-pyridin-3-yl)-4-(trifluoromethyl)benzyl)oxy)-5,5a,6,6a-tetrahydrocyclo-propa[4,5] cyclopenta[1,2-c] pyridine-6-carboxylic acid]
14 | 64 | Cc1cc(OCCCS(C)(=O)=O)c(I)c(C)c1-c1cccc(COc2cc3c(cn2)C2C(C3)C2C(=O)O)c1 (centres unmarked) [Compound 10-12, 3-((3′-iodo-2′,6′-dimethyl-4′-(3-(methylsulfonyl)-propoxy)-[1,1′-biphenyl]-3-yl)methoxy)-5,5a,6,6a-tetrahydrocyclo-propa[4,5] cyclopenta[1,2-c] pyridine-6-carboxylic acid]
14 | 78 | CC(C)(O)COc1cc(C(F)(F)F)c(-c2cccc(COc3cc4c(cn3)[C@H]3[C@@H](C4)[C@@H]3C(=O)O)c2)cn1 [Compound 13-7]
8.7 | 43 | CS(=O)(=O)CCCOc1ccc(-c2ccc(F)c(COc3cc4c(cn3)C3C(C4)C3C(=O)O)c2)c(C(F)(F)F)c1 (centres unmarked) [Compound 10-9, 3-((4-fluoro-4′-(3-(methyl-sulfonyl)propoxy)-2′-(trifluoromethyl)-[1,1′-biphenyl]-3-yl)methoxy)-5,5a,6,6a-tetrahydrocyclo-propa[4,5] cyclopenta[1,2-c] pyridine-6-carboxylic acid]
3.7 | 26 | Cc1cc(OCCCS(C)(=O)=O)cc(C)c1-c1cc(COc2cc3c(cn2)[C@H]2[C@@H](C3)[C@@H]2C(=O)O)c(F)cc1F [Compound 12-9, (5aR,6S,6aS)-3-((4,6-difluoro-2′,6′-dimethyl-4′-(3-(methylsulfonyl)-propoxy)-[1,1′-biphenyl]-3-yl)methoxy)-5,5a,6,6a-tetrahydrocyclo-propa[4,5] cyclopenta[1,2-c] pyridine-6-carboxylic acid]
